Measured values: PubChem BioAssay AID192 (DTP/NCI, 2004)
Values joined by “and” are separate entries in the source; they are usually repeats but may differ in a detail not shown here. Equal values may be shown once. Toxic doses and inconclusive results are not listed. Square brackets hold non-standard residues; d marks the D form. Peptide text beside a SMILES is read from it. * marks the point of attachment. Cbz = O=C(OCc1ccccc1)*; Nva = CCC[CH](N)C(=O)O

Test system: BDF1 mice, B16 melanoma ip, median survival T/C
Experiment: NCI In Vivo Anticancer Drug Screen. Data for tumor model B16 Melanoma (intraperitoneal) in B6D2F1 (BDF1) mice
Conditions: endpoint: median survival time, higher = longer survival
In short: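 Tumor-bearing mice received test compound or vehicle. Survival or tumor size was then measured in both groups. The treated-group figure was divided by the control-group figure.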

[1] = dose: 75.0 mg/kg/injection, schedule: Q01DX009 (ip), vehicle: Klucel (hydroxypropylcellulose) (HPC)
[2] = dose: 150.0 mg/kg/injection, schedule: Q01DX009 (ip), vehicle: Klucel (hydroxypropylcellulose) (HPC)
[3] = dose: 100.0 mg/kg/injection, schedule: Q01DX009 (ip), vehicle: Klucel (hydroxypropylcellulose) (HPC)
[4] = dose: 200.0 mg/kg/injection, schedule: Q01DX009 (ip), vehicle: Klucel (hydroxypropylcellulose) (HPC)
[5] = dose: 400.0 mg/kg/injection, schedule: Q01DX009 (ip), vehicle: Klucel (hydroxypropylcellulose) (HPC)
[6] = dose: 12.5 mg/kg/injection, schedule: Q01DX009 (ip), vehicle: Klucel (hydroxypropylcellulose) (HPC)
[7] = dose: 12.5 mg/kg/injection, schedule: Q01DX009 (ip), vehicle: saline with Tween-80
[8] = dose: 25.0 mg/kg/injection, schedule: Q01DX009 (ip), vehicle: Klucel (hydroxypropylcellulose) (HPC)
[9] = dose: 25.0 mg/kg/injection, schedule: Q01DX009 (ip), vehicle: saline with Tween-80
[10] = dose: 50.0 mg/kg/injection, schedule: Q01DX009 (ip), vehicle: Klucel (hydroxypropylcellulose) (HPC)
[11] = dose: 50.0 mg/kg/injection, schedule: Q01DX009 (ip), vehicle: saline with Tween-80
[12] = dose: 1.56 mg/kg/injection, schedule: Q01DX009 (ip), vehicle: saline
[13] = dose: 3.12 mg/kg/injection, schedule: Q01DX009 (ip), vehicle: saline
[14] = dose: 6.25 mg/kg/injection, schedule: Q01DX009 (ip), vehicle: saline
[15] = dose: 6.25 mg/kg/injection, schedule: Q04DX003 (ip), vehicle: saline
[16] = dose: 12.5 mg/kg/injection, schedule: Q04DX003 (ip), vehicle: saline
[17] = dose: 100.0 mg/kg/injection, schedule: Q01DX009 (ip), vehicle: saline with Tween-80

Nc1nc(=S)c2ncn(C3OC(COC(=O)c4ccc(Cl)cc4)C(OC(=O)c4ccc(Cl)cc4)C3OC(=O)c3ccc(Cl)cc3)c2[nH]1 (centres undefined)
T/C (dose: 18.75 mg/kg/injection, schedule: Q01DX009 (ip), vehicle: Klucel (hydroxypropylcellulose) (HPC)): 116 % of control
T/C (dose: 37.5 mg/kg/injection, schedule: Q01DX009 (ip), vehicle: Klucel (hydroxypropylcellulose) (HPC)): 120 % of control
T/C [1]: 116 % of control
T/C [2]: 109 % of control

OC1(C#CC2(O)c3ccccc3-c3ccccc32)c2ccccc2-c2ccccc21
T/C [3]: 122 % of control
T/C [4]: 97 % of control
T/C [5]: 94 % of control

CCOC1=CCN(S(=O)(=O)c2ccc(C)cc2)c2ccc(OC)cc21
T/C (dose: 100.0 mg/kg/injection, schedule: Q04DX003 (ip), vehicle: Klucel (hydroxypropylcellulose) (HPC)): 102 % of control
T/C (dose: 200.0 mg/kg/injection, schedule: Q04DX003 (ip), vehicle: Klucel (hydroxypropylcellulose) (HPC)): 104 % of control
T/C (dose: 400.0 mg/kg/injection, schedule: Q04DX003 (ip), vehicle: Klucel (hydroxypropylcellulose) (HPC)): 94 % of control

CSCCC(NC(=O)c1ccccc1)C(=O)O (centres undefined)
T/C [6]: 89 % of control
T/C [7]: 104 % of control
T/C [8]: 100 % of control
T/C [9]: 97 % of control
T/C [10]: 88 % of control
T/C [11]: 99 % of control
T/C [3]: 88 % of control

O=NN(CCBr)C(=O)Nc1ccccc1
T/C [7]: 152 % of control
T/C [9]: 202 % of control
T/C (dose: 37.5 mg/kg/injection, schedule: Q01DX009 (ip), vehicle: saline with Tween-80): 171 % of control
T/C [11]: 177 % of control

Cc1cc(CCl)c(C)c(Br)c1C
T/C (dose: 6.25 mg/kg/injection, schedule: Q01DX009 (ip), vehicle: Klucel (hydroxypropylcellulose) (HPC)): 97 % of control
T/C [6]: 119 % of control
T/C [8]: 105 % of control
T/C [10]: 105 % of control

[CH3][Pb]([CH3])([CH3])[Cl]
T/C (dose: 0.75 mg/kg/injection, schedule: Q01DX009 (ip), vehicle: saline): 117 % of control
T/C (dose: 1.5 mg/kg/injection, schedule: Q01DX009 (ip), vehicle: saline): 103 % of control

Cc1c(Cl)cccc1NC(=O)c1ccc(Cl)cc1
T/C [1]: 94 % of control
T/C [2]: 90 % of control

CCCCCCCC(O)CCCCC (centres undefined)
T/C [3]: 99 % of control
T/C [4]: 103 % of control
T/C [5]: 94 % of control

O=C1CCCC2C1C1(O)CCC2(O)c2cccc(O)c21 (centres undefined)
T/C [12]: 90 % of control
T/C [13]: 95 % of control
T/C (dose: 3.12 mg/kg/injection, schedule: Q04DX003 (ip), vehicle: saline): 93 % of control
T/C [14]: 93 % of control
T/C [15]: 91 % of control
T/C [6]: 95 % of control
T/C [16]: 91 % of control
T/C (dose: 18.0 mg/kg/injection, schedule: Q04DX003 (ip), vehicle: saline): 105 % of control
T/C (dose: 28.0 mg/kg/injection, schedule: Q04DX003 (ip), vehicle: saline): 103 % of control

NCCN1CCc2ccccc2C1
T/C [15]: 113 % of control
T/C [16]: 110 % of control
T/C (dose: 16.5 mg/kg/injection, schedule: Q04DX003 (ip), vehicle: saline): 112 % of control
T/C (dose: 25.0 mg/kg/injection, schedule: Q04DX003 (ip), vehicle: saline): 112 % of control and 115 % of control
T/C (dose: 37.5 mg/kg/injection, schedule: Q04DX003 (ip), vehicle: saline): 110 % of control

O=[N+]([O-])c1ccc([I+]c2ccccc2)cc1
T/C [6]: 115 % of control
T/C [7]: 113 % of control
T/C [8]: 118 % of control
T/C [9]: 112 % of control

CC(c1ccccc1)N1C(=O)CSC1=S (centres undefined)
T/C [9]: 100 % of control
T/C [11]: 94 % of control
T/C [17]: 103 % of control
T/C (dose: 200.0 mg/kg/injection, schedule: Q01DX009 (ip), vehicle: saline with Tween-80): 101 % of control

Cc1ccc(S(=O)(=O)N/N=C/C(Br)=C(/Br)C(=O)O)cc1
T/C [6]: 111 % of control
T/C [8]: 113 % of control
T/C [10]: 122 % of control

Cn1cnc([N+](=O)[O-])c1[Se]c1nc(N)nc2nc[nH]c12
T/C (dose: 3.12 mg/kg/injection, schedule: Q01DX009 (ip), vehicle: water): 109 % of control
T/C (dose: 6.25 mg/kg/injection, schedule: Q01DX009 (ip), vehicle: water): 117 % of control
T/C (dose: 11.0 mg/kg/injection, schedule: Q01DX009 (ip), vehicle: other): 116 % of control
T/C (dose: 12.5 mg/kg/injection, schedule: Q01DX009 (ip), vehicle: water): 150 % of control
T/C (dose: 16.5 mg/kg/injection, schedule: Q01DX009 (ip), vehicle: other): 117 % of control
T/C (dose: 25.0 mg/kg/injection, schedule: Q01DX009 (ip), vehicle: water): 153 % of control and 158 % of control

O=C(NC(CSC(=O)OCc1ccccc1)C(=O)Oc1ccc([N+](=O)[O-])cc1)OCc1ccccc1 (centres undefined)
T/C [10]: 105 % of control
T/C [4]: 100 % of control

C=C(C)C12OC3(c4ccccc4)OC1C1C4OC4(CO)C(O)C4(O)C(=O)C(C)=CC4C1(O3)C(C)C2OC(=O)c1ccccc1 (centres undefined)
T/C (dose: 0.1 mg/kg/injection, schedule: Q01DX009 (ip), vehicle: saline with Tween-80): 99 % of control
T/C (dose: 0.2 mg/kg/injection, schedule: Q01DX009 (ip), vehicle: saline with Tween-80): 101 % of control
T/C (dose: 0.4 mg/kg/injection, schedule: Q01DX009 (ip), vehicle: saline with Tween-80): 98 % of control

CCN1C(=O)CC2(CCN(C)CC2)C1=O
T/C (dose: 0.78 mg/kg/injection, schedule: Q01DX009 (ip), vehicle: saline): 122 % of control
T/C [12]: 117 % of control
T/C [13]: 103 % of control
T/C [14]: 108 % of control
T/C (dose: 12.5 mg/kg/injection, schedule: Q01DX009 (ip), vehicle: saline): 108 % of control
T/C (dose: 25.0 mg/kg/injection, schedule: Q01DX009 (ip), vehicle: saline): 102 % of control
T/C (dose: 50.0 mg/kg/injection, schedule: Q01DX009 (ip), vehicle: saline): 98 % of control
T/C (dose: 100.0 mg/kg/injection, schedule: Q01DX009 (ip), vehicle: saline): 96 % of control

Cc1ccc(C(=O)/C=C/c2ccccc2)cc1
T/C (dose: 25.0 mg/kg/injection, schedule: Q01DX009 (ip), vehicle: other): 100 % of control
T/C (dose: 50.0 mg/kg/injection, schedule: Q01DX009 (ip), vehicle: other): 105 % of control
T/C (dose: 100.0 mg/kg/injection, schedule: Q01DX009 (ip), vehicle: other): 107 % of control
T/C (dose: 200.0 mg/kg/injection, schedule: Q01DX009 (ip), vehicle: other): 100 % of control

O=C(Nc1ccc(F)cc1)Nc1nccs1
T/C [8]: 99 % of control
T/C [10]: 104 % of control
T/C [3]: 101 % of control
T/C [4]: 104 % of control

Cc1ccc(C)n1-c1ccccc1
T/C (dose: 100.0 mg/kg/injection, schedule: Q01DX009 (ip), vehicle: saline + alcohol): 101 % of control
T/C (dose: 200.0 mg/kg/injection, schedule: Q01DX009 (ip), vehicle: saline + alcohol): 99 % of control

Cc1cc2c(c(O)c1CN1CCOCC1)C1=C(CCCC1)C(C)(C)O2
T/C (dose: 32.0 mg/kg/injection, schedule: Q01DX009 (ip), vehicle: Klucel (hydroxypropylcellulose) (HPC)): 108 % of control
T/C (dose: 64.0 mg/kg/injection, schedule: Q01DX009 (ip), vehicle: Klucel (hydroxypropylcellulose) (HPC)): 98 % of control
T/C (dose: 128.0 mg/kg/injection, schedule: Q01DX009 (ip), vehicle: Klucel (hydroxypropylcellulose) (HPC)): 93 % of control
T/C (dose: 256.0 mg/kg/injection, schedule: Q01DX009 (ip), vehicle: Klucel (hydroxypropylcellulose) (HPC)): 103 % of control

CCCC(NC(=O)C(Cc1ccccc1)NC(=O)OCc1ccccc1)C(=O)O (stereo not drawn) (Cbz-Phe-[Nva]-OH; configuration not given here)
T/C [11]: 95 % of control
T/C [17]: 92 % of control

CC(=O)CC(C)=O.CC(=O)CC(C)=O.CC(=O)CC(C)=O.[Cr]
T/C [10]: 96 % of control
T/C [3]: 97 % of control
T/C [4]: 90 % of control

O=C(CCl)Nc1nccs1
T/C [7]: 103 % of control
T/C [9]: 100 % of control
T/C [11]: 93 % of control
T/C [17]: 87 % of control
